Active and inactive are the calls of the source.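 Rule for the calls: active = IC50 of 10 µM or lower; inactive = IC50 above 10 µM.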
Test system: T. brucei BSF 427 growth, AlamarBlue, 48 h
Experiment: growth inhibition of T. brucei bloodstream parasites, dose response, counter-screen for T. brucei MetRS inhibitor project, absorbance, assay provider, round 3 (AID 1053204)

SMILES | IC50
O=C(Cn1cc(C(=O)C(=O)NCc2ccccc2)c2ccccc21)Nc1cc(Oc2ccccc2)cc(C(F)(F)F)c1 | 916 nM
CCN(CC)C(=O)Cc1cn(CC(=O)Nc2cccc(C(F)(F)F)c2)c2ccccc12 | > 10000 nM (inactive)
CCN(CC)C(=O)C(=O)c1cn(CC(=O)Nc2cc(Oc3ccccc3F)cc(C(F)(F)F)c2)c2ccccc12 | 1630 nM
CCN(CC)C(=O)C(=O)c1cn(CC(=O)Nc2cc(Oc3ccccc3OC)cc(C(F)(F)F)c2)c2ccccc12 | 952 nM
CCN(CC)C(=O)C(=O)c1cn(CCNc2cccc(C(F)(F)F)c2)c2ccccc12 | 5500 nM
CCN(CC)C(=O)C(=O)c1cn(CC(=O)Nc2cc(Oc3ccc(OC)cc3)cc(C(F)(F)F)c2)c2ccccc12 | 830 nM
Nc1c(Cl)ncnc1Nc1ccc(C(=O)O)cc1 | > 10000 nM (inactive)
CCN(CC)C(=O)C(=O)c1cn(CC(=O)Nc2cc(Oc3ccc(F)cc3)cc(C(F)(F)F)c2)c2ccccc12 | 1420 nM
CCN(CC)C(=O)C(=O)c1cn(CCNc2cc(Oc3ccccc3)cc(C(F)(F)F)c2)c2ccccc12 | 4080 nM
O=C(Cc1ccc(Nc2nc3ccc(Br)cc3[nH]2)cc1)NCCc1cccs1 | 8910 nM
